These are literature values, as cited in patent US10631556B2, “Method for conducing concentrated cannabis oil to be stable, emulsifiable and flavorless for use in hot beverages and resulting powderized cannabis oil” (Pivot Naturals, LLC., priority 2015, dated 2020).

The conditions of data set [1]: inhalation.
The target of another data set is CYP 2C9 (Homo sapiens, UniProt P11712). As to conditions: anecdotal online article.
The conditions of data set [2]: mice, odor inhaled from ambient air for 1 hour.
For data set [3], the system named is Mice. As to conditions: odor inhaled from ambient air for 1 hour.
Data set [4] concerns Mice.

CYP 2C9, sequence (P11712 whole entry): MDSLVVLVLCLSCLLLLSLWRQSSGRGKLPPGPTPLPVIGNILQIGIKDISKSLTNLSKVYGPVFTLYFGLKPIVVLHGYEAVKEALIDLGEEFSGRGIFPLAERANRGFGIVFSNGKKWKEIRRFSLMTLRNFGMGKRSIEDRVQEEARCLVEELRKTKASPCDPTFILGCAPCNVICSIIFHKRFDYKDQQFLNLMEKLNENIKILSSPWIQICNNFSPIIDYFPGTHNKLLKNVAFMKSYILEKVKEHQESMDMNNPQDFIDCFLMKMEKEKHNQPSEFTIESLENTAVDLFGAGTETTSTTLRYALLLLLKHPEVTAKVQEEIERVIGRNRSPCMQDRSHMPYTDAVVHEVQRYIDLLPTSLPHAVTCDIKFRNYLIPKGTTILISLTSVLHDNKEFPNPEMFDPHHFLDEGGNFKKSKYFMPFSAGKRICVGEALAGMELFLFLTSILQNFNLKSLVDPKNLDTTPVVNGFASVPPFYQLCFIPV

Take `C=C(C)[C@H]1CC=C(C)CC1` [Limonene]: in data set [1], the human pulmonary uptake was 70%.
As to `O=C(/C=C/C=C/c1ccc2c(c1)OCO2)N1CCCCC1` [Piperine], at CYP 2C9, the “inhibition of CYP 2C9” value is “strongly”.
For `CCCCCc1cc(O)c2c(c1)OC(C)(C)[C@@H]1CCC(C)=C[C@@H]21` [THC, tetrahydrocannabinol], the “solubility in most organic solvents” value (organic solvents, specifically lipids and alcohols) is “good”. The solubility in water entry (water) was “very low”.
For the compound `C=CC(C)(O)CCC=C(C)C` (centres unmarked) [linalool], in data set [2], the serum concentration was 4.22 ng/mL. Besides, the reduction in motility in the data set on Mice [3] was 73%.
Consider `C=CC(=C)CCC=C(C)C` [myrcene], for which the muscle relaxant effect entry in the data set on Mice [4] is given as “acted as a muscle relaxant”. The barbiturate sleep time result with Mice [4] (high doses) is “potentiated barbiturate sleep time”.
Take pinene: in data set [1], the human pulmonary uptake is listed as 60%. In data set [2], the serum concentration result is reported as “trace”. The “increase in mouse activity” value in the data set on Mice [3] is 13.77%.
